Laboratory results reported in US12575571B2, “1-amino-1-cyclopropanecarboxylic acid and methyl jasmonate mixtures and uses thereof” (Valent BioSciences LLC, priority 2022, dated 2026).

Columns and labels:
[1] = test system: unripened apples, Imperial Gala variety; assay: Apple coloration in Imperial Gala variety (percent red pixel area after foliar spray); assay type: in vivo; details: 34 hours post spray; for Fold Change From control: vs 0.05% Regulaid control
Protocol: 10 sets of unripened apples, Imperial Gala variety, harvested three weeks before the normal harvest date, were each foliar sprayed with either 1) 0.05% Regulaid® as a control, 2) 50 ppm methyl jasmonate, 3) 300 ppm methyl jasmonate, 4) 50 ppm ACC, 5) 300 ppm ACC or 6) a mixture of 50 ppm methyl jasmonate and 50 ppm ACC or 7) a mixture of 300 ppm methyl jasmonate and 300 ppm ACC. 34 hours post spray application percent red pixel area (shaded) was measured. Percent red pixel area is an indication of the coloration of the apple fruit.
(§1) To determine if the mixture provided unexpected results, the observed combined efficacy (“OCE”) was divided by the expected combined efficacy (“ECE”) wherein the ECE is calculated by the Abbott method: ECE=A+B−(AB/100), wherein ECE is the expected combined efficacy and in which A and B are the fold change from control given by the single active ingredients. If the ratio between the OCE of the mixture and the ECE of the mixture is greater than 1, then greater than expected interactions are present in the mixture. (Gisi, Synergistic Interaction of Fungicides in Mixtures, The American Phytopathological Society, 86:11, 1273-1279,1996).

[2] = test system: unripened apples, Ultima Gala variety; assay: Apple coloration in Ultima Gala variety (percent red pixel area after foliar spray); assay type: in vivo; details: 34 hours post spray; for Fold Change From control: vs 0.05% Regulaid control
Protocol: as §1
10 sets of unripened apples, Ultima Gala variety, harvested three weeks before the normal harvest date, were each foliar sprayed with either 1) 0.05% Regulaid® as a control, 2) 50 ppm methyl jasmonate, 3) 300 ppm methyl jasmonate, 4) 50 ppm ACC, 5) 300 ppm ACC or 6) a mixture of 50 ppm methyl jasmonate and 50 ppm ACC or 7) a mixture of 300 ppm methyl jasmonate and 300 ppm ACC. 34 hours post spray application percent red pixel area (shaded) was measured. Percent red pixel area is an indication of the coloration of the apple fruit.

[3] = 50 ppm (each active) foliar spray
[4] = 300 ppm (each active) foliar spray

## CC/C=C\CC1C(=O)CCC1CC(=O)OC (centres unmarked) [methyl jasmonate]
[1]; [3]
  Average % Red Pixel Area: 63.31%
[1]; 50 ppm (each active)
  Fold Change From control: 8.31
[1]; [4]
  Average % Red Pixel Area: 47.60%
[1]; 300 ppm (each active)
  Fold Change From control: 6.00
[2]; [3]
  Average % Red Pixel Area: 36.64%
[2]; 50 ppm (each active)
  Fold Change From control: 2.30
[2]; [4]
  Average % Red Pixel Area: 46.37%
[2]; 300 ppm (each active)
  Fold Change From control: 3.17
